Like-named read-outs stand apart in the source and are kept apart here.
Target: T1, PD-1/PD-L1 protein/protein interaction (Homo sapiens, UniProt Q9NZQ7)
T1 construct: Recombinant human PD-L1 protein (19-238) with a His-tag at the C-terminus; purchased AcroBiosystems PD1-H5229 (PD-L1); PD1-H5257 (PD-1)
Experiment: PD-1/PD-L1 homogenous time-resolved fluorescence (HTRF) binding assay
Protocol: Resolved Fluorescence (HTRF) Binding Assay
The assays were conducted in a standard black 384-well polystyrene plate with a final volume of 20 μL. Inhibitors were first serially diluted in DMSO and then added to the plate wells before the addition of other reaction components. The final concentration of DMSO in the assay was 1%. The assays were carried out at 25° C. in the PBS buffer (pH 7.4) with 0.05% Tween-20 and 0.1% BSA. […] Plates were centrifuged and proteins were preincubated with inhibitors for 40 min. The incubation was followed by the addition of 10 μL of HTRF detection buffer supplemented with Europium cryptate-labeled anti-human IgG (PerkinElmer-AD0212) specific for Fc and anti-His antibody conjugated to SureLight®-Allophycocyanin (APC, PerkinElmer-AD0059H). After centrifugation, the plate was incubated at 25° C. for 60 min. […] Final concentrations in the assay were […], 10 nM PD-L1, nM europium anti-human IgG and 20 nM anti-His-Allophycocyanin. IC50 determination was performed by fitting the curve of percent control activity versus the log of the inhibitor concentration using the GraphPad Prism 5.0 software.

[1] = HTRF, recombinant human PD-1 (Fc tag) / PD-L1 (His-tag), 25° C., PBS pH 7.4, class symbols, read-out: IC50

T1 sequence (Q9NZQ7 19-238): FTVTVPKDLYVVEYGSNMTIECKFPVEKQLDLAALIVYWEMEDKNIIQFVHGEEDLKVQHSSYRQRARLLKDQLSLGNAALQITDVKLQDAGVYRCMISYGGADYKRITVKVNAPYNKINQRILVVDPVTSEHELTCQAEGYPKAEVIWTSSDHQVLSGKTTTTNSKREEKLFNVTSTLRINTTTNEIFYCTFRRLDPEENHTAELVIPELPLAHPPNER

| Compound | IC50 [1] [nM] | IC50 [nM] |
| --- | --- | --- |
| COc1cc2oc(-c3cccc(-c4cccc(OCCCN5CCOCC5)c4)c3C)nc2cc1CNCCO [Compound 1, 2-(((6-methoxy-2-(2-methyl-3′-(3-morpholinopropoxy)-[1,1′-biphenyl]-3-yl)benzo[d]oxazol-5-yl)methyl)amino)ethan-1-ol] | < 25 |  |
| COc1cc2oc(-c3cccc(-c4cccc(OCCCN5CCOCC5)c4)c3C)nc2cc1CN(C)C [Compound 2, 1-(6-methoxy-2-(2-methyl-3′-(3-morpholinopropoxy)-[1,1′-biphenyl]-3-yl)benzo[d]oxazol-5-yl)-N,N-dimethylmethanamine] | 25 to 150 |  |
| COc1cc2oc(-c3cccc(-c4cccc(OCCCN5CCOCC5)c4C)c3C)nc2cc1CN1CCCCC1C(=O)O (stereo not drawn) [Compound 3, 1-((2-(2,2′-dimethyl-3′-(3-morpholinopropoxy)-[1,1′-biphenyl]-3-yl)-6-methoxybenzo[d]oxazol-5-yl)methyl)piperidine-2-carboxylic acid] |  | 1 |
| COc1cc2oc(-c3cccc(-c4cccc(CCCN5CCOCC5)c4)c3C)nc2cc1CN1CCCCC1C(=O)O (stereo not drawn) [Compound 4, 1-((6-methoxy-2-(2-methyl-3′-(3-morpholinopropyl)-[1,1′-biphenyl]-3-yl)benzo[d]oxazol-5-yl)methyl)piperidine-2-carboxylic acid] |  | < 25 |
| COc1cc2oc(-c3cccc(-c4cccc(NC(=O)NCCNCCO)c4)c3C)nc2cc1CN1CCCCC1C(=O)O (stereo not drawn) [Compound 5, 1-((2-(3′-(3-(2-((2-hydroxyethyl)amino)ethyl)ureido)-2-methyl-[1,1′-biphenyl]-3-yl)-6-methoxybenzo[d]oxazol-5-yl)methyl)piperidine-2-carboxylic acid] |  | 25 to 150 |
| COc1cc2oc(-c3cccc(-c4cccc(C/C=C/CN5CCOCC5)c4C)c3C)nc2cc1CN1CCCCC1C(=O)O (stereo not drawn) [Compound 6, (E)-1-((2-(2,2′-dimethyl-3′-(4-morpholinobut-2-en-1-yl)-[1,1′-biphenyl]-3-yl)-6-methoxybenzo[d]oxazol-5-yl)methyl)piperidine-2-carboxylic acid] |  | < 25 |
| COc1cc2oc(-c3cccc(-c4cccc(/C=C/CCN5CCOCC5)c4C)c3C)nc2cc1CN1CCCCC1C(=O)O (stereo not drawn) [Compound 7, (E)-1-((2-(2,2′-dimethyl-3′-(4-morpholinobut-1-en-1-yl)-[1,1′-biphenyl]-3-yl)-6-methoxybenzo[d]oxazol-5-yl)methyl)piperidine-2-carboxylic acid] |  | < 25 |
| COc1cc2oc(-c3cccc(-c4cccc(NC(=O)CCN5CCOCC5)c4C)c3C)nc2cc1CN1CCCCC1C(=O)O (stereo not drawn) [Compound 8, 1-((2-(2,2′-dimethyl-3′-(3-morpholinopropanamido)-[1,1′-biphenyl]-3-yl)-6-methoxybenzo[d]oxazol-5-yl)methyl)piperidine-2-carboxylic acid] |  | < 25 |
| COc1cc2oc(-c3cccc(-c4cccc(OCCCN5CCOCC5)c4F)c3C)nc2cc1CN1CCCCC1C(=O)O (stereo not drawn) [Compound 9, 1-((2-(2′-fluoro-2-methyl-3′-(3-morpholinopropoxy)-[1,1′-biphenyl]-3-yl)-6-methoxybenzo[d]oxazol-5-yl)methyl)piperidine-2-carboxylic acid] |  | < 25 |
| COc1cc2oc(-c3cccc(-c4cccc(CCCCN5CCOCC5)c4)c3C)nc2cc1CN1CCCCC1C(=O)O (stereo not drawn) [Compound 10, 1-((6-methoxy-2-(2-methyl-3′-(4-morpholinobutyl)-[1,1′-biphenyl]-3-yl)benzo[d]oxazol-5-yl)methyl)piperidine-2-carboxylic acid] |  | 25 to 150 |
| COc1cc2oc(-c3cccc(-c4ccc(Cl)c(OCCCN5CCOCC5)c4)c3C)nc2cc1CN1CCCCC1C(=O)O (stereo not drawn) [Compound 11, 1-((2-(4′-chloro-2-methyl-3′-(3-morpholinopropoxy)-[1,1′-biphenyl]-3-yl)-6-methoxybenzo[d]oxazol-5-yl)methyl)piperidine-2-carboxylic acid] | 25 to 150 |  |
| COc1cc2nc(-c3cccc(-c4cccc(OCCCN5CCOCC5)c4F)c3C)n(C)c2cc1N1CCCCC1C(=O)O (stereo not drawn) [Compound 12, 1-(2-(2′-fluoro-2-methyl-3′-(3-morpholinopropoxy)-[1,1′-biphenyl]-3-yl)-5-methoxy-1-methyl-1H-benzo[d]imidazol-6-yl)piperidine-2-carboxylic acid] |  | < 25 |
| COc1cc2c(cc1CN1CCCCC1C(=O)O)nc(-c1cccc(-c3cccc(OCCCN4CCOCC4)c3F)c1C)n2C (stereo not drawn) [Compound 13, 1-((2-(2′-fluoro-2-methyl-3′-(3-morpholinopropoxy)-[1,1′-biphenyl]-3-yl)-6-methoxy-1-methyl-1H-benzo[d]imidazol-5-yl)methyl)piperidine-2-carboxylic acid] |  | < 25 |
| COc1cc2c(cc1CN1CCOCC1C(=O)O)nc(-c1cccc(-c3cccc(OCCCN4CCOCC4)c3)c1C)n2C (stereo not drawn) [Compound 14, 4-((6-methoxy-1-methyl-2-(2-methyl-3′-(3-morpholinopropoxy)-[1,1′-biphenyl]-3-yl)-1H-benzo[d]imidazol-5-yl)methyl)morpholine-3-carboxylic acid] |  | < 25 |
| COc1cc2c(cc1CN1CCC(F)(F)CC1C(=O)O)nc(-c1cccc(-c3cccc(OCCCN4CCOCC4)c3)c1C)n2C (stereo not drawn) [Compound 15, 4,4-difluoro-1-((6-methoxy-1-methyl-2-(2-methyl-3′-(3-morpholinopropoxy)-[1,1′-biphenyl]-3-yl)-1H-benzo[d]imidazol-5-yl)methyl)piperidine-2-carboxylic acid] |  | 25 to 150 |
| COc1cc2oc(-c3cccc(-c4cccc(OCCCN5CCOCC5)c4)c3C)nc2cc1CN1CCC(F)(F)CC1C(=O)O (stereo not drawn) [Compound 16, 4,4-difluoro-1-((6-methoxy-2-(2-methyl-3′-(3-morpholinopropoxy)-[1,1′-biphenyl]-3-yl)benzo[d]oxazol-5-yl)methyl)piperidine-2-carboxylic acid] |  | 25 to 150 |
| COc1cc2oc(-c3cccc(-c4cccc(NC(=O)CCN5CCOCC5)c4)c3C)nc2cc1CN1CCOCC1C(=O)O (stereo not drawn) [Compound 17, 4-((6-methoxy-2-(2-methyl-3′-(3-morpholinopropanamido)-[1,1′-biphenyl]-3-yl)benzo[d]oxazol-5-yl)methyl)morpholine-3-carboxylic acid] |  | < 25 |
| COc1cc2oc(-c3cccc(-c4cccc(OCCCN5CCOCC5)c4C#N)c3C)nc2cc1CN1CCOCC1C(=O)O (stereo not drawn) [Compound 18, 4-((2-(2′-cyano-2-methyl-3′-(3-morpholinopropoxy)-[1,1′-biphenyl]-3-yl)-6-methoxybenzo[d]oxazol-5-yl)methyl)morpholine-3-carboxylic acid] |  | < 25 |
| COc1cc2oc(-c3cccc(-c4cccc(OCCCN5CCOCC5)c4)c3C)nc2cc1CN(C)CC(=O)O [Compound 19, N-((6-methoxy-2-(2-methyl-3′-(3-morpholinopropoxy)-[1,1′-biphenyl]-3-yl)benzo[d]oxazol-5-yl)methyl)-N-methylglycine] | 25 to 150 |  |
| COc1cc2oc(-c3cccc(-c4cccc(OCCCN5CCOCC5)c4)c3C)nc2cc1CN1CCCC1C(=O)O (stereo not drawn) [Compound 20, ((6-methoxy-2-(2-methyl-3′-(3-morpholinopropoxy)-[1,1′-biphenyl]-3-yl)benzo[d]oxazol-5-yl)methyl)proline] |  | < 25 |
| COc1cc2oc(-c3cccc(-c4cccc(OCCCN5CCOCC5)c4)c3C)nc2cc1CNC(C)(CO)C(=O)O (stereo not drawn) [Compound 21, 3-hydroxy-2-(((6-methoxy-2-(2-methyl-3′-(3-morpholinopropoxy)-[1,1′-biphenyl]-3-yl)benzo[d]oxazol-5-yl)methyl)amino)-2-methylpropanoic acid] |  | < 25 |

Reference: patent publication US20210300909A1, “IMMUNOMODULATORS, COMPOSITIONS AND METHODS THEREOF” (BETTA PHARMACEUTICALS CO., LTD, priority 2018, published 2021)
